These results are taken from patent US20060269995A1, “Novel assays utilizing nicotinic acetylcholine receptor subunits” (priority 2005, published 2006).

The test system of experiment [1] is 30D (nicotinic acetylcholine receptor alpha-6 subunit). Format: cell-based, Drosophila melanogaster. The following applies: spinosyn A 10 μM for 60 seconds; oocytes clamped to −60 mV; peak current; 30D. As to the method:
Xenopus laevis (Xenopus 1, Ann Arbor, Mich.; Nasco, Fort Atkinson, Wis.) were anesthetized by bathing in a solution of 2 g/l tricaine methane sulfonate, and oocytes were surgically removed from the frog and placed in a culture solution that consisted of 96 mM NaCl, 2 mM KCl, 1.8 mM CaCl2, 1 mM MgCl2, 5 mM HEPES, 2.5 mM Na-pyruvate, 100 units/ml penicillin, and 0.1 mg/ml streptomycin, pH 7.6. Oocytes were dispersed in a nominally zero Ca^2+ protease treatment solution to defolliculate the oocytes. The protease treatment solution consisted of either 88 mM NaCl, 2.5 mM KCl, 1 mM MgCl2, 5 mM HEPES, 2.5 mM Na-pyruvate, 100 units/ml penicillin, and 0.1 mg/ml streptomycin, pH 7.6 plus 1.5 mg/ml collagenase IA (Sigma Chemical Co., St. Louis, Mo.). After isolation, the oocytes were thoroughly rinsed and returned to the above Ca^2+ containing culture solution and stored at 18° C.
Synthesis of cRNA was performed as follows: Plasmid DNA was linearized with one of the following restriction enzymes; Not I, Xho I or Nhe I. The linearized DNA was subsequently used as template for cRNA synthesis using T7 mMessage mMachine kit (Ambion, Austin, Tex.) following the manufacturer's instructions.
Micropipettes for injection of cRNA into Xenopus oocytes were pulled on a DMZ-Universal Puller (Zeitz-Instruments, München, Germany). The cRNA to be injected was drawn up into the micropipette with negative pressure. Approximately 10-50 ng of cRNA was injected into the oocytes by applying positive pressure using a Nanoject II oocyte injector (Drummond Scientific Co., Broomall, Pa.). Nucleic acid was introduced into the oocytes as follows: (1) nicotinic acetylcholine receptor alpha-6 subunit subunit (30D) (2) nicotinic alpha-7 receptor subunit (34E); (3) nicotinic acetylcholine receptor alpha-6 subunit and C. elegans ric-3 (30D and ric-3); (4) nicotinic alpha-7 receptor subunit and C. elegans ric-3 (34E and ric-3); (5) nicotinic acetylcholine receptor alpha-6 subunit and nicotinic alpha-7 receptor subunit (30D and 34E); and, (6) nicotinic acetylcholine receptor alpha-6 subunit, nicotinic alpha-7 receptor subunit and C. elegans ric-3 (30D, 34E and ric-3).
The control external solution for voltage clamp recordings consisted of 88 mM NaCl, 1 mM KCl, 0.41 mM CaCl2, 2.4 mM NaHCO3, 0.3 mM Ca(NO3)2, 0.82 mM MgSO4·7 H2O, and 15 mM HEPES, pH 7.6. The recording chamber was continuously perfused with a gravity-fed perfusion system. Nicotine (1 mM) was added to the external solution and then added to the perfusate for 30 seconds. Then, nicotine was washed from the external solution a minimum of 10 minutes. Thereafter, spinosyn A was dissolved in dimethylsulfoxide (DMSO) and then dissolved in the external solution at a final concentration of 10 μM and then added to the perfusate for 60 seconds. Then, the spinosyn A was washed from the external solution. The final concentration of DMSO never exceeded 0.1% (v/v).

The test system of experiment [2] is Dα6 and C. elegans ric3 expressed in D.Mel-2 cells. Briefly: [3H]DHSA radioligand displacement binding in D.Mel-2 cells. Details: species or system Drosophila melanogaster. To be noted: D.Mel-2 cells expressing Dα6 and C. elegans ric3. As to the method:
D.Mel-2 cells were seeded into 75 cm^2 flasks at 1.9×10^7 cells/flask in Drosophila SFM containing antibiotic/antimicotic and incubated overnight at 27° C. The transfection mix was prepared in 12×75 mm polystyrene tubes by mixing 1630 μl sterile water, 40 μg pIB/V5-HisA/ric3, 40 μg pIB/V5-HisA/30D and 250 μl CellFectin. The reagents were mixed gently and incubated at room temp for 15 minutes. While the transfection mix was incubating, the cells were washed with 10 ml fresh Drosophila SFM without antibiotics; this media was then removed from the cells and replaced with 6 ml fresh Drosophila SFM without antibiotics. To the transfection mix was added 4 ml Drosophila SFM without antibiotics and this was then transferred to the flask. The reagents were gently mixed by pipetting up and down and then incubated overnight at 27° C.
D.Mel-2 cells were purchased from Invitrogen (Carlsbad, Calif.) and grown in disposable 125 ml shake flasks using 50 ml volume. Cells were subcultured to 3×10^5 cells/ml twice per week in Drosophila SFM containing 5 ml/L Antibiotic-Antimycotic (100×) (Gibco, Carlsbad, Calif.). D.Mel-2 cells were seeded into a 12-well plate at a cell density of 5×10^5 cells/well and incubated overnight at 27° C. In a 12×75 mm polystyrene tube 6 μg pIB/V5-HisA/ric3, 82 μl sterile H2O and 12 μl CellFectin (Invitrogen, Carlsbad, Calif.) were added. The sample was mixed gently and incubated at room temperature for 15 minutes. While the transfection mix was incubating, media from one well of cells was removed and replaced with 1 ml fresh media without antibiotics. After 15 minutes, the media was removed from cells. To this transfection mix, 0.5 ml media (no antibiotics) was added. This solution was then added to the cells. The mixture was incubated for 48 hrs at 27° C. After 48 hrs, the cells were scraped from the plate using a cell scraper and split into 4 wells of a 6-well plate each containing 2 ml Drosophila SFM with antibiotics. Cells were allowed to attach for 1 hr at 27° C.; the media was removed and replaced with 2 ml fresh media containing 25 μg/ml Blasticidin S (Invitrogen, Carlsbad, Calif.). Cells were incubated at 27° C. for 5 days. After 5 days, the cells were scraped loose from the wells and combined into one tube. Cells were spun down at 600 rpm in a tabletop centrifuge; the media was removed and the cells were resuspended into a 50 ml shake culture in fresh Drosophila SFM containing 25 μg/ml Blasticidin S. The cells were incubated at 27° C./140 rpm. Cells were subcultured twice weekly back to cell density of 3×10^5 cells/ml. After 4 weeks the selection was cut back to 10 μg/ml Blasticidin S. After 3 months of growth under selection, a 12 well plate was seeded at 5×10^5 cells/well and cells were incubated over night at 27° C. The following reagents were added to each of three 12×75 mm polystyrene tubes: 2 μg pMT/V5-HisA/30D, 0.15 μg pCoHygro (Invitrogen, Carlsbad, Calif.) (a […] ratio of expression plasmid:selection plasmid), 89 μl sterile H2O and 12 μl CellFectin. The samples were mixed gently and incubated at room temp for 15 minutes and then transfected as described above. After 24 hrs, the media containing transfection mix was removed and replaced with 1 ml fresh media containing antibiotics. The incubation was continued at 27° C. for another 24 hrs. Cells were scraped loose from the 12-well plate (3 wells) and split into 2, 6-well plates. Cells were allowed to attach for 6 hours at which point, the media was replaced with 2 ml/well fresh media containing 200, 150, 100 or 50 μg/ml hygromycin B. The incubation was continued at 27° C.; every 4-5 days, the media was replaced with media containing hygromycin every 4-5 days. After 2 weeks of selection in the plates, the cells from the 200 μg/ml selection, were scraped loose and then gently pelleted and resuspended in 25 ml fresh media containing 200 μg/ml hygromycin B and then placed into a 125 ml shake flask.
In general terms: Displacement assays read how much labelled ligand stays bound in the presence of the test substance.
Wherever Spinosyn A Response is given: key: '−' indicates a negligible current was induced; '+' indicates a small amplitude current; '++' indicates a moderate amplitude current; '++++' indicates a large amplitude current.

Take `CC[C@H]1CCC[C@H](O[C@H]2CC[C@H](N(C)C)[C@@H](C)O2)[C@@H](C)C(=O)C2=C[C@@H]3[C@@H](C=C[C@@H]4C[C@@H](O[C@@H]5O[C@@H](C)[C@H](OC)[C@@H](OC)[C@H]5OC)C[C@@H]34)[C@@H]2CC(=O)O1` [Spinosyn A, spinosyn A]: the “Spinosyn A Response” value in experiment [1] is recorded as “−”. Moreover, the “displacement of [3H]DHSA binding” value in experiment [2] was “significant displacement”.
